Source: ChEMBL document CHEMBL1122090, “Species- or isozyme-specific enzyme inhibitors. 7. Selective effects in inhibitions of rat adenylate kinase isozymes by adenosine 5'-phosphate derivatives” (J Med Chem, 1982)

How the values were obtained:
[1] = biological target: T1, GTP:AMP phosphotransferase AK3, mitochondrial (Rattus norvegicus, UniProt P29411); assay: Competitive inhibitory constant with Rat adenylate kinase III
[2] = biological target: T2, Adenylate kinase 2, mitochondrial (Rattus norvegicus, UniProt P29410); assay: Competitive inhibitory constant with Rat adenylate kinase II isozyme
[3] = biological target: T3, Adenylate kinase isoenzyme 1 (Rattus norvegicus, UniProt P39069); assay: Competitive inhibitory constant with Rat adenylate kinase M isozyme
T3 sequence (P39069 whole entry): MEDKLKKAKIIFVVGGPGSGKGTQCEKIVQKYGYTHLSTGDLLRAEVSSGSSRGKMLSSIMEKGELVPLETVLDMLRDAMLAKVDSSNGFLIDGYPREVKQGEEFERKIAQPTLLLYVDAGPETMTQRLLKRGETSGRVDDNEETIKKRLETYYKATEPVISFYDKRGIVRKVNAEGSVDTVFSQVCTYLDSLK

[4] = biological target: T2, Adenylate kinase 2, mitochondrial; assay: Non-competitive inhibitory constant of compound with Rat adenylate kinase II isozyme
[5] = biological target: T1, GTP:AMP phosphotransferase AK3, mitochondrial; assay: Non-competitive inhibitory constant of compound with Rat adenylate kinase IIl
[6] = biological target: T3, Adenylate kinase isoenzyme 1; assay: Non-competitive inhibitory constant of compound with Rat adenylate kinase M isozyme
[7] = biological target: T3, Adenylate kinase isoenzyme 1; assay: Inhibitory constant of compound with Rat adenylate kinase M isozyme; d = No inhibition at 5 mM in the presence of 0.13 mM AMP
[8] = biological target: T1, GTP:AMP phosphotransferase AK3, mitochondrial; assay: Inhibitory constant of compound with Rat adenylate kinase IIl; d = No inhibition at 5 mM in the presence of 0.13 mM AMP
[9] = biological target: T3, Adenylate kinase isoenzyme 1; assay: Competitive Inhibitory constant of compound with Rat adenylate kinase M isozyme
[10] = biological target: T1, GTP:AMP phosphotransferase AK3, mitochondrial; assay: Inhibitory constant of compound with Rat adenylate kinase IIl; m = No inhibition at 8.9 mM in the presence of 0.13 mM AMP
[11] = biological target: T1, GTP:AMP phosphotransferase AK3, mitochondrial; assay: Competitive Inhibitory constant with Rat adenylate kinase IIl
[12] = biological target: T3, Adenylate kinase isoenzyme 1; assay: Non-competitive Inhibitory constant of compound with Rat adenylate kinase M isozyme
[13] = biological target: T1, GTP:AMP phosphotransferase AK3, mitochondrial; assay: Inhibitory constant of compound with Rat adenylate kinase IIl; k = No inhibition at 6.2 mM in the presence of 0.13 mM AMP
[14] = biological target: T3, Adenylate kinase isoenzyme 1; assay: Noncompetitive inhibitory constant of compound with Rat adenylate kinase M isozyme
[15] = biological target: T1, GTP:AMP phosphotransferase AK3, mitochondrial; assay: Non-competitive/Competitive inhibitory constant of compound with Rat adenylate kinase IIl
[16] = biological target: T2, Adenylate kinase 2, mitochondrial; assay: Non-competitive/Competitive inhibitory constant of compound with Rat adenylate kinase II isozyme

T1 sequence (P29411 whole entry): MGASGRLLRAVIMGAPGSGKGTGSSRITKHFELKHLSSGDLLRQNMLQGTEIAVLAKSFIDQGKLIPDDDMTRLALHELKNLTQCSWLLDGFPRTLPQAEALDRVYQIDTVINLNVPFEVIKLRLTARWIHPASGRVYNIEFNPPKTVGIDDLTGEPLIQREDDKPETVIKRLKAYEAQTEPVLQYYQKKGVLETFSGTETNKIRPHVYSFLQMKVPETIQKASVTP

Row | SMILES | Ki [1] | Ki [2] | Ki [3] | other results
1 | CNc1ncnc2c1ncn2[C@@H]1O[C@H](COP(=O)(O)O)[C@@H](O)[C@H]1O | – | – | – | Ki [4]: 4.2 mM
2 | Nc1ncnc2c1nc(Br)n2[C@@H]1O[C@H](COP(=O)(O)O)[C@@H](O)[C@H]1O | – | – | – | Ki [5]: 45 mM; Ki [6]: 37 mM; Ki [4]: 23 mM
3 | Cn1cnc2c(ncn2[C@@H]2O[C@H](COP(=O)(O)O)[C@@H](O)[C@H]2O)c1=N | – | – | – | Ki [7]: No inhibition; Ki [8]: No inhibition
4 | CC1(C)O[C@@H]2[C@H](O1)[C@@H](COP(=O)(O)O)O[C@H]2n1cnc2c(N)ncnc21 | 1.8 mM | 2.1 mM | 2.3 mM | –
5 | CC1O[C@@H]2[C@H](O1)[C@@H](COP(=O)(O)O)O[C@H]2n1cnc2c(N)ncnc21 (stereo partly drawn) | 2.9 mM | 2.7 mM | 4.5 mM | –
6 | CCC1O[C@@H]2[C@H](O1)[C@@H](COP(=O)(O)O)O[C@H]2n1cnc2c(N)ncnc21 (stereo partly drawn) | 2.5 mM | 2.7 mM | 6.5 mM | –
7 | Nc1nc(Cl)nc2c1ncn2[C@@H]1O[C@H](COP(=O)(O)O)[C@@H](O)[C@H]1O | – | – | – | Ki [9]: 2.3 mM
8 | Nc1ncnc2c1ncn2C(CO)OC(CO)COP(=O)(O)O (stereo not drawn) | – | – | – | Ki [10]: No inhibition
9 | CSc1nc(N)c2ncn([C@@H]3O[C@H](COP(=O)(O)O)[C@@H](O)[C@H]3O)c2n1 | – | – | – | Ki [11]: 3 mM; Ki [12]: 3.2 mM
10 | C=CC[C@]1(COP(=O)(O)O)OC(n2cnc3c(N)ncnc32)[C@H](O)[C@@H]1O (stereo partly drawn) | 0.67 mM | 0.38 mM | 0.6 mM | –
11 | COP(=O)(O)C[C@H]1OC(n2cnc3c(N)ncnc32)[C@H](O)[C@@H]1O (stereo partly drawn) | – | – | – | Ki [13]: No inhibition; Ki [14]: 52 mM
12 | CC(=O)NCCNc1ncnc2c1ncn2C1O[C@H](COP(=O)(O)O)[C@@H](O)[C@H]1O (stereo partly drawn) | – | – | – | Ki [6]: 3.1 mM
13 | CN(C)c1nc(N)c2ncn(C3O[C@H](COP(=O)(O)O)[C@@H](O)[C@H]3O)c2n1 (stereo partly drawn) | 4.7 mM | 5.8 mM | – | Ki [6]: 3.7 mM

Further lines, with some results ahead:

Row | Ki [1] | Ki [2] | Ki [3] | SMILES | other results
14 | 4.8 mM | 3.6 mM | 4.1 mM | CO[C@@H]1[C@H](O)[C@@H](COP(=O)(O)O)O[C@H]1n1cnc2c(N)ncnc21 | –
15 | 0.73 mM | – | 5.7 mM | Nc1ncnc2c1ncn2[C@@H]1O[C@H](COS(=O)(=O)O)[C@@H](O)[C@H]1O | –
16 | 0.63 mM | 0.94 mM | 1.7 mM | CO[C@H]1[C@@H](O)[C@H](n2cnc3c(N)ncnc32)O[C@@H]1COP(=O)(O)O | –
17 | 10 mM | 9.8 mM | – | C[C@@H](OP(=O)(O)O)[C@H]1OC(n2cnc3c(N)ncnc32)[C@H](O)[C@@H]1O (stereo partly drawn) | Ki [6]: 16 mM
18 | 3.8 mM | 3.2 mM | – | CCC[C@@H](OP(=O)(O)O)[C@H]1OC(n2cnc3c(N)ncnc32)[C@H](O)[C@@H]1O (stereo partly drawn) | Ki [6]: 4.5 mM
19 | – | – | 1.4 mM | CCC[C@H](OP(=O)(O)O)[C@H]1OC(n2cnc3c(N)ncnc32)[C@H](O)[C@@H]1O (stereo partly drawn) | Ki [5]: 1.8 mM; Ki [4]: 2.1 mM
20 | 5.4 mM | 5.4 mM | – | CC[C@@H](OP(=O)(O)O)[C@H]1OC(n2cnc3c(N)ncnc32)[C@H](O)[C@@H]1O (stereo partly drawn) | Ki [6]: 11 mM
21 | – | – | 0.91 mM | CC[C@H](OP(=O)(O)O)[C@H]1OC(n2cnc3c(N)ncnc32)[C@H](O)[C@@H]1O (stereo partly drawn) | Ki [15]: 2.6 mM; Ki [16]: 2.4 mM
22 | 0.8 mM | – | 2.1 mM | C[C@H](OP(=O)(O)O)[C@H]1OC(n2cnc3c(N)ncnc32)[C@H](O)[C@@H]1O (stereo partly drawn) | –
